Test results reported in PubChem BioAssay (NCI).
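Following 48 hours of exposure in 96-well plates, responses at five concentrations were used to interpolate endpoints linearly. GI50: concentration for 50% inhibition of growth. Definition used: TGI = concentration required for complete inhibition of growth.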

Columns and labels:
Experiment in all cases: NCI-60 cell line screen, 48 h
KM12 colon = system: KM12 colon
EKVX NSCLC = system: EKVX NSCLC
SK-OV-3 ovarian = system: SK-OV-3 ovarian
OVCAR-8 ovarian = system: OVCAR-8 ovarian
SF-539 CNS = system: SF-539 CNS
SNB-19 CNS = system: SNB-19 CNS
DU-145 prostate = system: DU-145 prostate
COLO 205 colon = system: COLO 205 colon
UACC-257 melanoma = system: UACC-257 melanoma
HCT-15 colon = system: HCT-15 colon
SF-268 CNS = system: SF-268 CNS
PC-3 prostate = system: PC-3 prostate
MCF7 breast = system: MCF7 breast
HOP-62 NSCLC = system: HOP-62 NSCLC
HL-60(TB) leukemia = system: HL-60(TB) leukemia
IGROV1 ovarian = system: IGROV1 ovarian
UO-31 renal = system: UO-31 renal
SK-MEL-5 melanoma = system: SK-MEL-5 melanoma
T-47D breast = system: T-47D breast
NCI-H23 lung = system: NCI-H23 lung
MDA-MB-231 breast = system: MDA-MB-231 breast
M14 melanoma = system: M14 melanoma
LOX IMVI melanoma = system: LOX IMVI melanoma
MOLT-4 leukemia = system: MOLT-4 leukemia
SNB-75 CNS = system: SNB-75 CNS
SK-MEL-2 melanoma = system: SK-MEL-2 melanoma
SN12C renal = system: SN12C renal
CCRF-CEM leukemia = system: CCRF-CEM leukemia
MDA-MB-468 breast = system: MDA-MB-468 breast

## C=C1CCC2C3(C)COC(c4c(F)cccc4F)OC3CCC2(C)C1C/C=C1/C(=O)OCC1O (stereo not drawn)
KM12 colon
  GI50: 2.54 µM
  TGI: 6.88 µM
EKVX NSCLC
  GI50: 13 µM
  TGI: 26.1 µM
SK-OV-3 ovarian
  GI50: 17.8 µM
  TGI: 32.4 µM
OVCAR-8 ovarian
  GI50: 2.26 µM
  TGI: 7.04 µM
SF-539 CNS
  GI50: 1.81 µM
  TGI: 3.3 µM
SNB-19 CNS
  GI50: 8.4 µM
  TGI: 20.8 µM
DU-145 prostate
  GI50: 4.16 µM
  TGI: 14.9 µM
COLO 205 colon
  GI50: 2.43 µM
  TGI: 5.27 µM
UACC-257 melanoma
  GI50: 2.28 µM
  TGI: 8.77 µM
HCT-15 colon
  GI50: 1.75 µM
  TGI: 4.12 µM
SF-268 CNS
  GI50: 4.4 µM
  TGI: 17.2 µM
PC-3 prostate
  GI50: 3.61 µM
  TGI: 13.4 µM
MCF7 breast
  GI50: 1.95 µM
  TGI: 5.48 µM
HOP-62 NSCLC
  GI50: 11.3 µM
  TGI: 24 µM
HL-60(TB) leukemia
  GI50: 2 µM
  TGI: 5.03 µM
IGROV1 ovarian
  GI50: 4.56 µM
  TGI: 16.5 µM
UO-31 renal
  GI50: 1.73 µM
  TGI: 3.99 µM
SK-MEL-5 melanoma
  GI50: 4.53 µM
  TGI: 16.4 µM
T-47D breast
  GI50: 3.25 µM
  TGI: 17.6 µM
NCI-H23 lung
  GI50: 5.66 µM
  TGI: 18.5 µM
MDA-MB-231 breast
  GI50: 2.29 µM
  TGI: 5.45 µM
M14 melanoma
  GI50: 3.34 µM
  TGI: 12 µM
LOX IMVI melanoma
  GI50: 1.59 µM
  TGI: 2.93 µM
MOLT-4 leukemia
  GI50: 3.37 µM
  TGI: 11.1 µM
SNB-75 CNS
  GI50: 3.75 µM
  TGI: 16.4 µM
SK-MEL-2 melanoma
  GI50: 2.88 µM
  TGI: 8.52 µM
SN12C renal
  GI50: 1.81 µM
  TGI: 4.2 µM
CCRF-CEM leukemia
  GI50: 2.24 µM
  TGI: 6.68 µM
MDA-MB-468 breast
  GI50: 1.78 µM
  TGI: 3.58 µM
